Test results from ChEMBL document CHEMBL5241054, “Effective anti-aromatase therapy to battle against estrogen-mediated breast cancer: Comparative SAR/QSAR assessment on steroidal aromatase inhibitors” (Eur J Med Chem, 2020).
Where “and” joins values, the source holds several entries; their conditions need not be identical. Equal values may be shown once.

Legend:
[1] = molecular target: T1, Aromatase (Homo sapiens, UniProt P11511)
T1 sequence (P11511 whole entry): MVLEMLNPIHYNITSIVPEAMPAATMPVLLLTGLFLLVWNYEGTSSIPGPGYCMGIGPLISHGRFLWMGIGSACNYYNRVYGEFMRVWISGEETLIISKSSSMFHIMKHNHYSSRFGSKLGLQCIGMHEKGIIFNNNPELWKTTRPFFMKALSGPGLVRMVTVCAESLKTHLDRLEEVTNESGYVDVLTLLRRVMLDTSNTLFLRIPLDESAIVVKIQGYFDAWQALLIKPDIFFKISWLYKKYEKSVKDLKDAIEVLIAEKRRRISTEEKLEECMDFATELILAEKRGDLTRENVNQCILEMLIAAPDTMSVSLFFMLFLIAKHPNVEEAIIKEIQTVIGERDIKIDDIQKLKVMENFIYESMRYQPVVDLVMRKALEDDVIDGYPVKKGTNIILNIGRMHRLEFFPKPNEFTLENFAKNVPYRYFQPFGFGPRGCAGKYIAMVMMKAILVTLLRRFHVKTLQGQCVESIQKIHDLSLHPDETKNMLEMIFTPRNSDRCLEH

[2] = molecular target: T1, Aromatase; remark: listed apart in the source
[3] = molecular target: T1, Aromatase; remark: listed apart in the source
[4] = molecular target: T1, Aromatase; assay: Binding affinity to aromatase (unknown origin) assessed as change in gibbs free energy

SMILES | IC50 [1] | IC50 [2] [nM] | pIC50 [3] | deltaG [4] [kcal/mol]
C[C@]12C=CC(=O)C=C1C[C@@H](CCCc1ccccc1)[C@@H]1[C@@H]2CC[C@]2(C)C(=O)CC[C@@H]12 | 7.69 nM | 63.7 |  | 
C[C@]12CC[C@H](O)CC1=CC[C@@H]1[C@@H]2CC[C@]2(C)C(=O)[C@@H](n3ccnc3)C[C@@H]12 |  |  | 5.481 | 
C[C@]12CCC(=O)C=C1C=C(CCc1ccc(N)cc1)[C@@H]1[C@@H]2CC[C@]2(C)C(=O)CC[C@@H]12 | 1250 nM | 87.9 |  | 
C[C@]12C=CC(=O)C=C1C[C@@H](CCc1ccccc1)[C@@H]1[C@@H]2CC[C@]2(C)C(=O)CC[C@@H]12 | 16.7 nM | 155 |  | 
C[C@]12CCC(=O)C=C1C(=O)C[C@@H]1[C@@H]2CC[C@]2(C)C(=O)CC[C@@H]12 | 1100 nM and 280 nM | 280 |  | 
C[C@]12C=CC(=O)C=C1C[C@@H](Cc1ccccc1)[C@@H]1[C@@H]2CC[C@]2(C)C(=O)CC[C@@H]12 | 232 nM | 19.2 |  | 
C[C@]12C=CC(=O)C=C1C[C@@H](CCCc1ccc([N+](=O)[O-])cc1)[C@@H]1[C@@H]2CC[C@]2(C)C(=O)CC[C@@H]12 | 12.9 nM | 75.7 |  | 
C[C@]12CCC(=O)C=C1C=C(Cc1ccc(N)cc1)[C@@H]1[C@@H]2CC[C@]2(C)C(=O)CC[C@@H]12 | 490 nM | 87.9 |  | 
C[C@]12CCC(=O)C=C1C=C(Cc1ccc([N+](=O)[O-])cc1)[C@@H]1[C@@H]2CC[C@]2(C)C(=O)CC[C@@H]12 | 929 nM | 94 |  | 
C[C@]12CCC(=O)C=C1C=C(CCc1ccc([N+](=O)[O-])cc1)[C@@H]1[C@@H]2CC[C@]2(C)C(=O)CC[C@@H]12 | 4500 nM | 95.1 |  | 
C[C@@H]1C[C@@]2(C)C(=CC1=O)CC[C@@H]1[C@@H]2CC[C@]2(C)C(=O)CC[C@@H]12 | 250 nM and 460 nM | 460 |  | 
C[C@]12CCC(=O)C=C1C=C(Cc1ccccc1)[C@@H]1[C@@H]2CC[C@]2(C)C(=O)CC[C@@H]12 | 600 nM | 61 |  | 
C[C@]12CCC(=O)C(O)=C1CC[C@@H]1[C@@H]2CC[C@]2(C)C(=O)CC[C@@H]12 [FORMESTANE] |  | 562 |  | 13.35
C[C@]12CCC(=O)C=C1C=C(CCc1ccccc1)[C@@H]1[C@@H]2CC[C@]2(C)C(=O)CC[C@@H]12 | 661 nM | 174 |  | 
COc1ccc([C@@H]2[C@H]3C[C@H]4[C@@H]5CC[C@H]6C[C@@H](OC(=O)C(F)(F)F)CC[C@]6(C)[C@H]5CC[C@]4(C)C3=NN2C(C)=O)cc1 | 6460 nM |  |  | 
C/C=C1\CC[C@@]2(C)[C@@H](CC[C@@H]3[C@@H]2CC[C@]2(C)C4=NN(C)[C@H](c5ccc(OC)cc5)[C@H]4C[C@@H]32)C1 | 3400 nM |  |  | 
CN1N=C2[C@H](C[C@H]3[C@@H]4CC[C@H]5C[C@@H](OC(=O)C(F)(F)F)CC[C@]5(C)[C@H]4CC[C@]23C)[C@H]1c1ccccc1 | 5810 nM |  |  | 
C[C@]12CCC(=O)C=C1[C@@H](OCc1ccccc1)C[C@@H]1[C@@H]2CC[C@]2(C)C(=O)CC[C@@H]12 | 2500 nM |  |  | 
COc1ccc([C@@H]2[C@H]3C[C@H]4[C@@H]5CC[C@H]6C[C@@H](O)CC[C@]6(C)[C@H]5CC[C@]4(C)C3=NN2C)cc1 | 6120 nM |  |  | 
